The results in this text go back to patent publication EP4722207A1, “OXOISOINDOLINYL-SUBSTITUTED TETRAHYDROPYRIMIDINEDIONE DERIVATIVE AND USE THEREOF” (Gluetacs Therapeutics (Shanghai) Co., Ltd., priority 2023, dated 2024).

One assay deals with MDA-MB-231. Nature of the assay: Cell viability assay (CellTiter-Meiluncell Luminescent), tumor cell proliferation, MDA-MB-231. The conditions noted are these: Homo sapiens, MDA-MB-231, 96 h; for inhibition at 0.01 µM: read-out: Inhibition Rate at 10 nM (%); for inhibition at 0.5 µM: read-out: Inhibition Rate at 500 nM (%).
The target of a further assay is T1, GSPT1 (Homo sapiens, UniProt P15170+Q96SW2).
T1 construct: effects of the compounds of the present disclosure on the expression of target proteins in cells; endogenous in cells; host or cells: human PBMCs (hPBMCs)
Nature of the assay: Western-blot assay, substrate protein degradation in hPBMCs: GSPT1. The class given is cell-based. To be noted: 24 hours of compound treatment, 50 nM and 500 nM.

The test system of a further assay is H2228. Nature of the assay: Cell viability assay (CellTiter-Meiluncell Luminescent), tumor cell proliferation, H2228. To be noted: Homo sapiens, NCI-H2228, 96 h; for inhibition at 0.01 µM: read-out: Inhibition Rate at 10 nM (%); for inhibition at 0.5 µM: read-out: Inhibition Rate at 500 nM (%).
Another assay deals with T2, IKZF1 (Homo sapiens, UniProt Q13422+Q96SW2).
T2 construct: effects of the compounds of the present disclosure on the expression of target proteins in cells; endogenous in cells; host or cells: human PBMCs (hPBMCs)
Nature of the assay: Western-blot assay, substrate protein degradation in hPBMCs: IKZF1. The class given is cell-based. The conditions noted are these: 24 hours of compound treatment, 50 nM and 500 nM.

Another assay deals with T3, WEE1 (Homo sapiens, UniProt P30291+Q96SW2).
T3 construct: effects of the compounds of the present disclosure on the expression of target proteins in cells; endogenous in cells; host or cells: human PBMCs (hPBMCs)
Nature of the assay: Western-blot assay, substrate protein degradation in hPBMCs: WEE1. The class given is cell-based. The conditions noted are these: 24 hours of compound treatment, 50 nM and 500 nM.

The next assay relates to H292. Nature of the assay: Cell viability assay (CellTiter-Meiluncell Luminescent), tumor cell proliferation, H292. To be noted: Homo sapiens, NCI-H292, 96 h; for inhibition at 0.01 µM: read-out: Inhibition Rate at 10 nM (%); for inhibition at 0.5 µM: read-out: Inhibition Rate at 500 nM (%).
Another assay has as its target T4, IKZF2 (Homo sapiens, UniProt Q96SW2+Q9UKS7).
T4 construct: effects of the compounds of the present disclosure on the expression of target proteins in cells; endogenous in cells; host or cells: human PBMCs (hPBMCs)
Nature of the assay: Western-blot assay, substrate protein degradation in hPBMCs: IKZF2. The assay is classed as cell-based. To be noted: 24 hours of compound treatment, 50 nM and 500 nM.

The test system of the next assay is MV-4-11. Nature of the assay: Cell viability assay (CellTiter-Meiluncell Luminescent), tumor cell proliferation, MV-4-11. The conditions noted are these: Homo sapiens, MV4-11, 96 h; for inhibition at 0.01 µM: read-out: Inhibition Rate at 10 nM (%); for inhibition at 0.5 µM: read-out: Inhibition Rate at 500 nM (%).
The next assay has as its target T5, IKZF3 (Homo sapiens, UniProt Q96SW2+Q9UKT9).
T5 construct: effects of the compounds of the present disclosure on the expression of target proteins in cells; endogenous in cells; host or cells: human PBMCs (hPBMCs)
Nature of the assay: Western-blot assay, substrate protein degradation in hPBMCs: IKZF3. The conditions noted are these: 24 hours of compound treatment, 50 nM and 500 nM. The assay is classed as cell-based.

Another assay deals with T6, CK1α (Homo sapiens, UniProt P48729+Q96SW2).
T6 construct: effects of the compounds of the present disclosure on the expression of target proteins in cells; endogenous in cells; host or cells: human PBMCs (hPBMCs)
Nature of the assay: Western-blot assay, substrate protein degradation in hPBMCs: CK1α. The class given is cell-based. To be noted: 24 hours of compound treatment, 50 nM and 500 nM.

T3 sequence (P30291 whole entry): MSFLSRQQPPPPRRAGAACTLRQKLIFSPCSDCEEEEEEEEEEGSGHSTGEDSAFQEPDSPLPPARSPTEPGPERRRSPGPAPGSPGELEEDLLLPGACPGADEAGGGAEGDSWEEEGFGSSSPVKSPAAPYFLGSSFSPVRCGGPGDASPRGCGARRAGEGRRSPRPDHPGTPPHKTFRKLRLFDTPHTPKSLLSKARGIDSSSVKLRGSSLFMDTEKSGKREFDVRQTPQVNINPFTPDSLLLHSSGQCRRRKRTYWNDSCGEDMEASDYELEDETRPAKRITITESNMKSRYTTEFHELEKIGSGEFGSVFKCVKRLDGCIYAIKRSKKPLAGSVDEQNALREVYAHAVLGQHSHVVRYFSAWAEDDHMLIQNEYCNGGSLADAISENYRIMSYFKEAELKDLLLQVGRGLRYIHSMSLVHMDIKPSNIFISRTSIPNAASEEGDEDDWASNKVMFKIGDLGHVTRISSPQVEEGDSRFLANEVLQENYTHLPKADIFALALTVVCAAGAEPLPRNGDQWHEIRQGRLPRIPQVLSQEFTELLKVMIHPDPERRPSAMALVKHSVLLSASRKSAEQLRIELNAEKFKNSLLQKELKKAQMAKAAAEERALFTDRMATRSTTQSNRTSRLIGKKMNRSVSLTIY
T3 sequence (Q96SW2 whole entry): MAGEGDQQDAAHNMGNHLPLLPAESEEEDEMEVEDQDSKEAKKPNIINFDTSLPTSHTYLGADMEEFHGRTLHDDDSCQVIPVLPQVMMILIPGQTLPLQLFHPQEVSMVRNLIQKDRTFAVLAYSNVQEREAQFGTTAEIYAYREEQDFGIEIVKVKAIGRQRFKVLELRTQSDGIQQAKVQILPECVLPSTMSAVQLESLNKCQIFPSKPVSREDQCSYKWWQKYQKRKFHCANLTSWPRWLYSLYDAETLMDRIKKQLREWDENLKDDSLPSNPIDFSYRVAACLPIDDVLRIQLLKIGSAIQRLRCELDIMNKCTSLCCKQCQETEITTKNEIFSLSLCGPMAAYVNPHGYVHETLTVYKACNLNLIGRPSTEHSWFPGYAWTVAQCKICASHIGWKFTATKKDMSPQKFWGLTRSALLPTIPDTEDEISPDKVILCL
T3 sequence (Q16531 whole entry partner): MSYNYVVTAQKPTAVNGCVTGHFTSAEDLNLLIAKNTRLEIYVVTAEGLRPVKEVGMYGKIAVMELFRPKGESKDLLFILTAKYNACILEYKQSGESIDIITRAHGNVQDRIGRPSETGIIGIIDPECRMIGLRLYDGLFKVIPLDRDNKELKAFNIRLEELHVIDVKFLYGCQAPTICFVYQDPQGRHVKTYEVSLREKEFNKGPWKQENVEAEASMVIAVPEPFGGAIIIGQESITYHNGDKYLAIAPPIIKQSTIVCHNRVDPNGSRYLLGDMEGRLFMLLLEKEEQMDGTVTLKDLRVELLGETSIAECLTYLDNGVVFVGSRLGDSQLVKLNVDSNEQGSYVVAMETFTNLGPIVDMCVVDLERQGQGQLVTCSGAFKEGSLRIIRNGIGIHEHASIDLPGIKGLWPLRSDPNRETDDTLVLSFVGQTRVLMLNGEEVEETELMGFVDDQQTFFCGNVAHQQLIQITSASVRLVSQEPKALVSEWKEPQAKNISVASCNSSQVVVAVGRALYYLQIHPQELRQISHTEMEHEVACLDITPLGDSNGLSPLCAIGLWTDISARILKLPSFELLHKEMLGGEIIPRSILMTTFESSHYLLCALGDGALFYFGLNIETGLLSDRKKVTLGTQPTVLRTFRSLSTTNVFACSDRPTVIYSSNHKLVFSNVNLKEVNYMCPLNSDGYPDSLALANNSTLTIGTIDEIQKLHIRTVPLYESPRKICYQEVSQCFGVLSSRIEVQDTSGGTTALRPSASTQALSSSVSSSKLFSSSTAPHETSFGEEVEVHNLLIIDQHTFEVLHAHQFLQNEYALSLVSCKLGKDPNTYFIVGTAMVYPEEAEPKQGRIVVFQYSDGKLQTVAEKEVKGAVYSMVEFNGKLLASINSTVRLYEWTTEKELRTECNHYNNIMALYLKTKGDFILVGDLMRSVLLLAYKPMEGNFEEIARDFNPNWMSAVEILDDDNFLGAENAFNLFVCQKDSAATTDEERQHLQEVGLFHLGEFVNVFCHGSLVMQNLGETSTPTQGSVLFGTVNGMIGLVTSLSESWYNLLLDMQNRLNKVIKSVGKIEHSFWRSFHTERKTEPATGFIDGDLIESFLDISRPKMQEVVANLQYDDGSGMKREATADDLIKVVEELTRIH
T2 sequence (Q13422 whole entry): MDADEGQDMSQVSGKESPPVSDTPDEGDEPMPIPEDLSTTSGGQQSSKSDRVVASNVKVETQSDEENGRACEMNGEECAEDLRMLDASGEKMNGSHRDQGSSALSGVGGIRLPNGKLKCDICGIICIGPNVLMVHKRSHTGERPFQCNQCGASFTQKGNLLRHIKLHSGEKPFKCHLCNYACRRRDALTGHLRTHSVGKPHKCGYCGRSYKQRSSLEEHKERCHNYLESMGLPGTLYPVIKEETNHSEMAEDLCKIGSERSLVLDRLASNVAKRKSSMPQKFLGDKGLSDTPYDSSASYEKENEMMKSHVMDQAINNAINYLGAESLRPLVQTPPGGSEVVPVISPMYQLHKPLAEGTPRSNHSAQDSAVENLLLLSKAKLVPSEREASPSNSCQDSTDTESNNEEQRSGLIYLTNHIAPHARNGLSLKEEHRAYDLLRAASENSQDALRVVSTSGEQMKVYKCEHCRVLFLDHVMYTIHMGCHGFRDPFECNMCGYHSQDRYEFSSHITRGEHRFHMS
T2 sequence (Q96SW2 whole entry): as the sequence (Q96SW2 whole entry) above
T2 sequence (Q16531 whole entry partner): as the sequence (Q16531 whole entry partner) above
T5 sequence (Q9UKT9 whole entry): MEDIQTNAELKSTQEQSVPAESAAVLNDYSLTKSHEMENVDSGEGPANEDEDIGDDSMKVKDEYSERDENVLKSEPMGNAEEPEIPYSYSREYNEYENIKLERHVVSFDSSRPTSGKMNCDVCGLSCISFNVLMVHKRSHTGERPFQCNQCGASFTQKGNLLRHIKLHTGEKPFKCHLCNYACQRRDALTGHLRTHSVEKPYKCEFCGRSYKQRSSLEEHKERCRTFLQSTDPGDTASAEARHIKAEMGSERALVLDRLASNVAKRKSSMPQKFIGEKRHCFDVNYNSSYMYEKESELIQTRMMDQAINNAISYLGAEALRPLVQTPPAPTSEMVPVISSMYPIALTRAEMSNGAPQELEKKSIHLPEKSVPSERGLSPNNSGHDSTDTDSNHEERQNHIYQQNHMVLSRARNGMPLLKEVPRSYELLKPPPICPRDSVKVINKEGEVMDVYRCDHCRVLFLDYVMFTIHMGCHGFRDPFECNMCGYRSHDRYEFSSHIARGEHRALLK
T5 sequence (Q96SW2 whole entry): as the sequence (Q96SW2 whole entry) above
T5 sequence (Q16531 whole entry partner): as the sequence (Q16531 whole entry partner) above
T6 sequence (P48729 whole entry): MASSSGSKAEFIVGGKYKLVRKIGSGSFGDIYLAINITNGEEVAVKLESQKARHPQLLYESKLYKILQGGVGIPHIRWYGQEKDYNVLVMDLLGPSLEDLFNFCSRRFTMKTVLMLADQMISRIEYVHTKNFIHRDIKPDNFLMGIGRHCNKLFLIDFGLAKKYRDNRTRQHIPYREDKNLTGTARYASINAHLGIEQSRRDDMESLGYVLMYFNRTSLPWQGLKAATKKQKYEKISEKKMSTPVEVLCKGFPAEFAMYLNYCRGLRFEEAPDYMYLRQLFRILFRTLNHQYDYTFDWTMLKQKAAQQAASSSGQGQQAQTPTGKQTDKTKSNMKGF
T6 sequence (Q96SW2 whole entry): as the sequence (Q96SW2 whole entry) above
T6 sequence (Q16531 whole entry partner): as the sequence (Q16531 whole entry partner) above
T4 sequence (Q9UKS7 whole entry): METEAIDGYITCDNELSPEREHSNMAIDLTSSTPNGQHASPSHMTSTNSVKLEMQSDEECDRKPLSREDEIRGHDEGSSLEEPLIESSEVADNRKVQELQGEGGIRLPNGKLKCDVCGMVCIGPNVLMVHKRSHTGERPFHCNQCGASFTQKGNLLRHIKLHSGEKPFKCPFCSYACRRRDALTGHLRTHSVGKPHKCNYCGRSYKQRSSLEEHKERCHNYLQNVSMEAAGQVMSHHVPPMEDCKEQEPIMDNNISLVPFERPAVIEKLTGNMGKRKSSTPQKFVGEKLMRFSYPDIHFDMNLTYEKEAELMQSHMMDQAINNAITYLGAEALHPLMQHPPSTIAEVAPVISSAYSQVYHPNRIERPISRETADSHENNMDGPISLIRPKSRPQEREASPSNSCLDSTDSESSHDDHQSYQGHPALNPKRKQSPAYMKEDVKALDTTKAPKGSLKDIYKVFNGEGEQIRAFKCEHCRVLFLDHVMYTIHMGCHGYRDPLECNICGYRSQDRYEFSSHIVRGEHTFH
T4 sequence (Q96SW2 whole entry): as the sequence (Q96SW2 whole entry) above
T4 sequence (Q16531 whole entry partner): as the sequence (Q16531 whole entry partner) above
Experimental for MDA-MB-231: (§1) The tumor cells used herein were cultured in a cell culture medium listed in table 2 at 37°C in an incubator with 5% CO2. Prior to experimentation, all cell lines used were correctly identified by STR profiling, and tested negative for mycoplasma contamination using a mycoplasma detection kit through routine screenings.
(§2) On the following day, the test compounds of the present disclosure were subjected to serial dilution. […] Subsequently, 0.5 µL of the test compound dilution was transferred into the 96-well plate containing the cells, with each well containing 100 µL of cell culture medium. […] Into the 96-well plate, the diluted test compounds and corresponding detection reagents were added, resulting in final test compound concentrations of 500 nM and 10 nM, respectively. The experimental procedure is described below using the diluted 2 µM test compound as an example.
(§3) After the cells were treated with the compounds of the present disclosure for a specified period, the cell viability assay reagent was added to the culture medium according to the kit's instructions to determine cell viability. […] All controls were treated using the same procedure as the compounds of the present disclosure. The growth inhibition curves for the compounds of the present disclosure were plotted using Prism GraphPad software, and the IC50 values were calculated therefrom.
Experimental for MV-4-11: as §1, §2, §3

Regarding `Cc1sc2ncnc(C3CCN(Cc4ccc5c(c4)CN(N4CCC(=O)NC4=O)C5=O)CC3)c2c1C` [GT-08084, 1-(5-((4-(5,6-dimethylthieno[2,3-d]pyrimidin-4-yl)piperidin-1-yl)methyl)-1-oxoisoindolin-2-yl)dihydropyrimidine-2,4(1H,3H)-dione], the inhibition at 0.01 µM in the assay with MDA-MB-231 lay in the range of 5 to 10%; in the assay with H2228, 10 to 15%; in the assay on H292, 1 to 5%; with MV-4-11, 18 to 25%. Further, the inhibition at 0.5 µM lay in the range of 18 to 25% with MDA-MB-231, 25 to 30% with H2228, 10 to 15% in the assay with H292 and 10 to 18% with MV-4-11. In addition, at GSPT1, the “substrate protein remaining % GSPT1” value is reported as “A (0% ≤ substrate protein remaining % ≤ 80%)”. For the same compound, the “substrate protein remaining % IKZF1” value at IKZF1 is reported as “B (80%< substrate protein remaining %≤ 100%)”. Besides, the “substrate protein remaining % WEE1” value at WEE1 is recorded as “B (80%< substrate protein remaining %≤ 100%)”. For the same compound, the “substrate protein remaining % IKZF2” value on IKZF2 is on record as “B (80%< substrate protein remaining %≤ 100%)”. Also, at IKZF3, the “substrate protein remaining % IKZF3” value was “B (80%< substrate protein remaining %≤ 100%)”. At CK1α, the “substrate protein remaining % CK1α” value is on record as “A (0% ≤ substrate protein remaining % ≤ 80%)”.
For the compound `O=C1CCN(N2Cc3cc(CN4CCC(c5cccc(F)c5F)CC4)ccc3C2=O)C(=O)N1` [GT-08194, 1-(5-((4-(2,3-difluorophenyl)piperidin-1-yl)methyl)-1-oxoisoindolin-2-yl)dihydropyrimidine-2,4(1H,3H)-dione], the figures for the inhibition at 0.01 µM in the assay with MDA-MB-231, in the assay with H2228 and in the assay on MV-4-11 were 18 to 25%, 20 to 25% and 18 to 25%, respectively. Besides, the inhibition at 0.5 µM in the assay on MDA-MB-231 lay within 25 to 40%; with H2228, 20 to 25%; with MV-4-11 it was 60 to 80%. The “substrate protein remaining % GSPT1” value at GSPT1 is “A (0% ≤ substrate protein remaining % ≤ 80%)”. The “substrate protein remaining % IKZF1” value at IKZF1 was “A (0% ≤ substrate protein remaining % ≤ 80%)”. Moreover, the “substrate protein remaining % WEE1” value at WEE1 is given as “B (80%< substrate protein remaining %≤ 100%)”. Also, the “substrate protein remaining % IKZF2” value at IKZF2 is on record as “B (80%< substrate protein remaining %≤ 100%)”. For the same compound, the “substrate protein remaining % IKZF3” value on IKZF3 was “B (80%< substrate protein remaining %≤ 100%)”. The “substrate protein remaining % CK1α” value on CK1α is “B (80%< substrate protein remaining %≤ 100%)”.
In the case of `O=C1CCN(N2Cc3cc(CN4CCC(c5ncnc6sccc56)CC4)ccc3C2=O)C(=O)N1` [GT-08082, 1-(1-oxo-5-((4-(thieno[2,3-d]pyrimidin-4-yl)piperidin-1-yl)methyl)isoindolin-2-yl)dihydropyrimidine-2,4(1H,3H)-dione], the inhibition at 0.01 µM in the assay with MDA-MB-231 lay within 25 to 40%; in the assay on H2228 it was 25 to 30%; in the assay with H292 it was 20 to 40%; in the assay on MV-4-11, 40 to 60%. The inhibition at 0.5 µM lay in the range of 18 to 25% in the assay with MDA-MB-231, 20 to 25% in the assay with H2228, 20 to 40% in the assay on H292 and 40 to 60% in the assay on MV-4-11. For the same compound, at GSPT1, the “substrate protein remaining % GSPT1” value is on record as “A (0% ≤ substrate protein remaining % ≤ 80%)”. For the same compound, the “substrate protein remaining % IKZF1” value on IKZF1 is listed as “B (80%< substrate protein remaining %≤ 100%)”. The “substrate protein remaining % WEE1” value on WEE1 is on record as “A (0% ≤ substrate protein remaining % ≤ 80%)”. Besides, the “substrate protein remaining % IKZF2” value on IKZF2 is given as “B (80%< substrate protein remaining %≤ 100%)”. Besides, at IKZF3, the “substrate protein remaining % IKZF3” value was “B (80%< substrate protein remaining %≤ 100%)”. Besides, at CK1α, the “substrate protein remaining % CK1α” value is “A (0% ≤ substrate protein remaining % ≤ 80%)”.
As for `CC(C)c1cc2c(N3CCN(Cc4ccc5c(c4)CN(N4CCC(=O)NC4=O)C5=O)CC3)ncnc2s1` [GT-08060, 1-(5-((4-(6-isopropylthieno[2,3-d]pyrimidin-4-yl)piperazin-1-yl)methyl)-1-oxoisoindolin-2-yl)dihydropyrimidine-2,4(1H,3H)-dione], the figures for the inhibition at 0.01 µM in the assay on MDA-MB-231, in the assay with H2228 and in the assay on H292 were 25 to 40%, 20 to 25% and 20 to 40%, respectively. The figures for the inhibition at 0.5 µM in the assay on MDA-MB-231, with H2228 and in the assay on H292 were 25 to 40%, 30 to 40% and 20 to 40%, respectively. On GSPT1, the “substrate protein remaining % GSPT1” value is on record as “B (80%< substrate protein remaining %≤ 100%)”. For the same compound, the “substrate protein remaining % IKZF1” value at IKZF1 is recorded as “B (80%< substrate protein remaining %≤ 100%)”. Also, the “substrate protein remaining % WEE1” value on WEE1 was “B (80%< substrate protein remaining %≤ 100%)”. Moreover, the “substrate protein remaining % IKZF2” value on IKZF2 is recorded as “A (0% ≤ substrate protein remaining % ≤ 80%)”. Moreover, the “substrate protein remaining % IKZF3” value on IKZF3 is listed as “A (0% ≤ substrate protein remaining % ≤ 80%)”. Besides, the “substrate protein remaining % CK1α” value on CK1α is listed as “B (80%< substrate protein remaining %≤ 100%)”.
As to `O=C1CCN(N2C(=O)c3ccc(CN4CCN(c5ncnc6sc(-c7ccccc7)cc56)CC4)cc3C2=O)C(=O)N1` [GT-08097, 2-(2,4-dioxotetrahydropyrimidin-1(2H)-yl)-5-((4-(6-phenylthieno[2,3-d]pyrimidin-4-yl)piperazin-1-yl)methyl)isoindoline-1,3-dione], the inhibition at 0.01 µM in the assay on MDA-MB-231 was in the range of 10 to 15%; in the assay with H2228 it was 15 to 20%; in the assay on H292 it was 5 to 10%. In addition, the inhibition at 0.5 µM with MDA-MB-231 was 18 to 25%; in the assay with H2228 it was 30 to 40%; with H292, 10 to 15%. On GSPT1, the “substrate protein remaining % GSPT1” value is listed as “A (0% ≤ substrate protein remaining % ≤ 80%)”. On IKZF1, the “substrate protein remaining % IKZF1” value is “B (80%< substrate protein remaining %≤ 100%)”. For the same compound, on WEE1, the “substrate protein remaining % WEE1” value was “A (0% ≤ substrate protein remaining % ≤ 80%)”. In addition, the “substrate protein remaining % IKZF2” value on IKZF2 is reported as “B (80%< substrate protein remaining %≤ 100%)”. Also, the “substrate protein remaining % IKZF3” value on IKZF3 is given as “B (80%< substrate protein remaining %≤ 100%)”. Moreover, the “substrate protein remaining % CK1α” value on CK1α is “A (0% ≤ substrate protein remaining % ≤ 80%)”.
For the compound `O=C1CCN(N2Cc3cc(CN4CCN(c5ncnc6sccc56)CC4)ccc3C2=O)C(=O)N1` [GT-08057, 1-(1-oxo-5-((4-(thieno[2,3-d]pyrimidin-4-yl)piperazin-1-yl)methyl)isoindolin-2-yl)dihydropyrimidine-2,4(1H,3H)-dione], the inhibition at 0.01 µM with MDA-MB-231 was 25 to 40%; with H2228 it was 30 to 40%; in the assay with H292, 15 to 20%. Also, the figures for the inhibition at 0.5 µM in the assay with MDA-MB-231, in the assay on H2228 and in the assay with H292 were 25 to 40%, 20 to 25% and 15 to 20%, respectively. Also, on GSPT1, the “substrate protein remaining % GSPT1” value is “A (0% ≤ substrate protein remaining % ≤ 80%)”. The “substrate protein remaining % IKZF1” value on IKZF1 was “A (0% ≤ substrate protein remaining % ≤ 80%)”. Moreover, the “substrate protein remaining % WEE1” value at WEE1 was “B (80%< substrate protein remaining %≤ 100%)”. Also, the “substrate protein remaining % IKZF2” value on IKZF2 is listed as “B (80%< substrate protein remaining %≤ 100%)”. In addition, at IKZF3, the “substrate protein remaining % IKZF3” value is “B (80%< substrate protein remaining %≤ 100%)”. The “substrate protein remaining % CK1α” value on CK1α was “B (80%< substrate protein remaining %≤ 100%)”.
`O=C1CCN(N2C(=O)c3ccc(CNC45CC6CC(CC(O)(C6)C4)C5)cc3C2=O)C(=O)N1` [GT-07786, 2-(2,4-dioxotetrahydropyrimidin-1(2H)-yl)-5-((((1r,3s,5R,7S)-3-hydroxyadamantan-1-yl)amino)methyl)isoindoline-1,3-dione]: the inhibition at 0.01 µM in the assay with MDA-MB-231 is 15 to 18%; with H2228, 10 to 15%; with H292, 10 to 15%. The results for the inhibition at 0.5 µM with MDA-MB-231, in the assay on H2228 and in the assay with H292 were 25 to 40%, 25 to 30% and 20 to 40%, respectively. Besides, the “substrate protein remaining % GSPT1” value on GSPT1 is “A (0% ≤ substrate protein remaining % ≤ 80%)”. The “substrate protein remaining % IKZF1” value at IKZF1 was “B (80%< substrate protein remaining %≤ 100%)”. Also, the “substrate protein remaining % WEE1” value at WEE1 is given as “B (80%< substrate protein remaining %≤ 100%)”. Further, the “substrate protein remaining % IKZF2” value at IKZF2 was “B (80%< substrate protein remaining %≤ 100%)”. For the same compound, the “substrate protein remaining % IKZF3” value on IKZF3 was “B (80%< substrate protein remaining %≤ 100%)”. Moreover, the “substrate protein remaining % CK1α” value on CK1α was “B (80%< substrate protein remaining %≤ 100%)”.
